Measurements: BindingDB's records for doi:10.1124/jpet.104.081539 (Kyowa Hakko Kogyo, 2005)

Legend:
Thromboxane-A synthase = biological target: T1, Thromboxane-A synthase (Homo sapiens, UniProt P24557)
T1 sequence (P24557 whole entry): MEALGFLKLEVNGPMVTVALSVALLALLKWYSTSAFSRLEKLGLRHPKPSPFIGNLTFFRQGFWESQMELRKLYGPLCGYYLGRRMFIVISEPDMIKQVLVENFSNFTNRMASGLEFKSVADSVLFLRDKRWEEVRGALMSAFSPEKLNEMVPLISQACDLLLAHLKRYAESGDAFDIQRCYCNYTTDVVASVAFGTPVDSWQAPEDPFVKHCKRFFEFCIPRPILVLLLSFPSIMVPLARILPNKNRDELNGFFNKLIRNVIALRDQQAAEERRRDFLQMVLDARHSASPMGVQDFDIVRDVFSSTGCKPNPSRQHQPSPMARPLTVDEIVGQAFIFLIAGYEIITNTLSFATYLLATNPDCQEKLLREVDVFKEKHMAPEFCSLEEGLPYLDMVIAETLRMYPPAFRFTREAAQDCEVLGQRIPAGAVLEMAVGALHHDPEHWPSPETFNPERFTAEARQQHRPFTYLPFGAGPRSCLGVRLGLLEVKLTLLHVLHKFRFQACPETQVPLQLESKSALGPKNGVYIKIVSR

[1] = biological target: T2, Alpha-2A adrenergic receptor [16-465] (Rattus norvegicus, UniProt P22909)
T2 construct: 16-465
T2 sequence (P22909 whole entry): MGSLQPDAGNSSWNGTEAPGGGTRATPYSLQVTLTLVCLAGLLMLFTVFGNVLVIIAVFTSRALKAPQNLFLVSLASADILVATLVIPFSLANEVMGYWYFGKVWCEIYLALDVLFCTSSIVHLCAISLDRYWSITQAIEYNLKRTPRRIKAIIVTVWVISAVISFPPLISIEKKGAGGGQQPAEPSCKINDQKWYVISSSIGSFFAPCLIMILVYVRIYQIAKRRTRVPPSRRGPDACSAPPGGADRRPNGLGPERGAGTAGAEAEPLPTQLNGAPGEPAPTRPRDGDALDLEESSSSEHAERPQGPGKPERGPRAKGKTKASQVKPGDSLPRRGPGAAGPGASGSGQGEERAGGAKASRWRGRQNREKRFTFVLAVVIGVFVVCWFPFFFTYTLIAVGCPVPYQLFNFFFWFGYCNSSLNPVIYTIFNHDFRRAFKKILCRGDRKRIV

[2] = biological target: T3, Prostaglandin G/H synthase 2 (Homo sapiens, UniProt P35354)
T3 sequence (P35354 whole entry): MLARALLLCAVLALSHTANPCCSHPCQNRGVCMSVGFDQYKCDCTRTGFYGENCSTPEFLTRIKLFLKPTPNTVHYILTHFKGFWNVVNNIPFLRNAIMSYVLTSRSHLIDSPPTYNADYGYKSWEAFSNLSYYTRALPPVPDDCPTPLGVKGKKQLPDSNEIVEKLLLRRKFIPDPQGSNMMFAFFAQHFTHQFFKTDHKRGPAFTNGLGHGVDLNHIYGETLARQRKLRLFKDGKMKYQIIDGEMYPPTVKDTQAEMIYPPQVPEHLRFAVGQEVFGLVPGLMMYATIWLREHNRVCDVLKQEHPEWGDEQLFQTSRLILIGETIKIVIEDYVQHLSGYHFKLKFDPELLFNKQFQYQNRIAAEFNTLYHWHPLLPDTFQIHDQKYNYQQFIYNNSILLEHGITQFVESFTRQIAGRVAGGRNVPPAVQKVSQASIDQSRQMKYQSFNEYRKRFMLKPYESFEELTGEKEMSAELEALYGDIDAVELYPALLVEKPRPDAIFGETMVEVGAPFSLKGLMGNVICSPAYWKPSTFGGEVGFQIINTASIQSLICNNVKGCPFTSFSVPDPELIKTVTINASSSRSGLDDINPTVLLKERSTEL

Histamine H1 receptor = Histamine H1 receptor (Homo sapiens, UniProt P35367)
Histamine H1 receptor, sequence (P35367 whole entry): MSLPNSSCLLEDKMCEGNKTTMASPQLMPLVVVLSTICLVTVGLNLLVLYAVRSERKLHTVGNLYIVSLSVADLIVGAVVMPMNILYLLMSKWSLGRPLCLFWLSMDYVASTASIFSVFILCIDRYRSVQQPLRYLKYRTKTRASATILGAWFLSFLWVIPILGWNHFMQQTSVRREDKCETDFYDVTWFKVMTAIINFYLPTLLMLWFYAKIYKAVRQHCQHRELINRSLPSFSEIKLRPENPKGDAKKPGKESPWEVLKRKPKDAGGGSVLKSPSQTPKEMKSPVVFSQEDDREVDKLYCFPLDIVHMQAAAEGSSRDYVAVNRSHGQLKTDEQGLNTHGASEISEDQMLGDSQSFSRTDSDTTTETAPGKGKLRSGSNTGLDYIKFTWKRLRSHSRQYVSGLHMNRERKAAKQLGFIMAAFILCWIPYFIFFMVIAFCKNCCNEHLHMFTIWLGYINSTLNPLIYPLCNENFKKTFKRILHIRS

[3] = biological target: Prostaglandin G/H synthase 1 (Homo sapiens, UniProt P23219)
Prostaglandin G/H synthase 1, sequence (P23219 whole entry): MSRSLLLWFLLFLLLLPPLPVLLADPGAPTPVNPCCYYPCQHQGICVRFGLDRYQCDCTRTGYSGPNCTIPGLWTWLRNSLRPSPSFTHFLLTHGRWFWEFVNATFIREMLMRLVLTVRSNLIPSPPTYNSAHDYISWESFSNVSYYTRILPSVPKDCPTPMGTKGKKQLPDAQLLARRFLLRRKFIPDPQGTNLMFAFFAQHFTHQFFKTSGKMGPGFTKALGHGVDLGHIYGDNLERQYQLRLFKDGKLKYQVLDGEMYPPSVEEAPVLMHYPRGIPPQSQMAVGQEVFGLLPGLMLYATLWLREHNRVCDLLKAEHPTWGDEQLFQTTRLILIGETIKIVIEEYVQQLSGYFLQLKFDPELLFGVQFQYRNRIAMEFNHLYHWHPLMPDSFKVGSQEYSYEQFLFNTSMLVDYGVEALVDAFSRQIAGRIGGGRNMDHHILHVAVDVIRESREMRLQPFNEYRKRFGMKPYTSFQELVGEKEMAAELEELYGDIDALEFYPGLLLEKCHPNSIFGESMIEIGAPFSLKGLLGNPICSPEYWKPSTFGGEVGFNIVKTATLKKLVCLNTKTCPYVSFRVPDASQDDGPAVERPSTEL

[4] = biological target: T4, Prostaglandin D2 receptor (Homo sapiens, UniProt Q13258)
T4 sequence (Q13258 whole entry): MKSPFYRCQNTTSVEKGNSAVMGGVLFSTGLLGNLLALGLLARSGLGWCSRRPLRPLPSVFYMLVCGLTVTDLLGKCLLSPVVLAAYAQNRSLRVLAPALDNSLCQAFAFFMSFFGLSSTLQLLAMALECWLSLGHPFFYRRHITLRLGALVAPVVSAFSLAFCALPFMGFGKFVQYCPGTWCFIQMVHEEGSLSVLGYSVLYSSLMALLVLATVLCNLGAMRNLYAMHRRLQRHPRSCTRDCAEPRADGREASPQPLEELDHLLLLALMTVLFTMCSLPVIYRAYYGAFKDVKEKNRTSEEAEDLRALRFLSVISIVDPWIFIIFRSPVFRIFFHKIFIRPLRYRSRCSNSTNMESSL

[5] = biological target: Platelet-activating factor receptor (Homo sapiens, UniProt P25105)
Platelet-activating factor receptor, sequence (P25105 whole entry): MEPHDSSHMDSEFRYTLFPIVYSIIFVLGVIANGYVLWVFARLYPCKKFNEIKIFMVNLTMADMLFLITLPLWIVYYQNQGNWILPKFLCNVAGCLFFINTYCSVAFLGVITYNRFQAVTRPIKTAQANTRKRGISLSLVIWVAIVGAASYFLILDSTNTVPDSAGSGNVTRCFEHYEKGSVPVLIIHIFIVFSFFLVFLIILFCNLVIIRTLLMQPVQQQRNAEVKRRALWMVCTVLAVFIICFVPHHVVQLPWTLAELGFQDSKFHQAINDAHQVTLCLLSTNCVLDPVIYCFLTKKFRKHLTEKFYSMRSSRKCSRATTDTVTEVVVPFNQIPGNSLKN

Thromboxane A2 receptor = biological target: T5, Thromboxane A2 receptor (Homo sapiens, UniProt P21731)
T5 sequence (P21731 whole entry): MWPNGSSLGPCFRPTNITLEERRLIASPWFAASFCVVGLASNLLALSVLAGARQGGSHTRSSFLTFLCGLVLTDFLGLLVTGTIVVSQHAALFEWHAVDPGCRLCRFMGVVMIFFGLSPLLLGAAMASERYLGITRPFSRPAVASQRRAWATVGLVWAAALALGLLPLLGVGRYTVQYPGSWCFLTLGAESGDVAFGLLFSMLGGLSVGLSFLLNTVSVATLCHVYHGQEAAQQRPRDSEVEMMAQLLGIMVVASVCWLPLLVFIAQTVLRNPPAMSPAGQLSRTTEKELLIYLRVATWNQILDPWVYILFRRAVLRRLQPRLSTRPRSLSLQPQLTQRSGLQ

Measured: Ki

CCC(=O)N1c2ccccc2C(N(C(C)=O)c2ccccc2)CC1C (centres undefined) [K376]
> 1 µM: Thromboxane-A synthase | [1] | [2] | Histamine H1 receptor | [3] | [4] | [5] | Thromboxane A2 receptor

CC(C)C(=O)N(c1ccccc1)C1CC(C)N(C(=O)c2ccccc2)c2ccccc21 (centres undefined) [K117]
> 1 µM: Thromboxane-A synthase | [1] | [2] | Histamine H1 receptor | [3] | [4] | [5] | Thromboxane A2 receptor

CC1CC(N(C(=O)C2CC2)c2ccccc2)c2ccccc2N1C(=O)c1ccccc1 (centres undefined) [K604]
> 1 µM: Thromboxane-A synthase | [1] | [2] | Histamine H1 receptor | [3] | [4] | [5] | Thromboxane A2 receptor
